US20120225135A1 (priority 2010, published 2012)
Where “and” joins values, the source holds several entries; their conditions need not be identical. Equal entries are not always repeated. Where two headings read alike, the source gives them in different places.

How the values were obtained:
TPC = experiment: Sanitation of fishing holds, TPC; settings: cleaned surface sprayed with 10 ppm ClO2 solution
Excerpt: (§1) Gross filth removed and washed in detergent
(§2) Cleaned surface sprayed with 10 ppm ClO2 solution

[1] = system: Escherichia coli, ATCC 11229; format: cell-based; settings: pH 5
E. coli [2] = experiment: Sanitation of fishing holds, E. coli; settings: cleaned surface sprayed with 10 ppm ClO2 solution
Excerpt: as §1, §2

[3] = Processing of potatoes, micro-biological control of process water
Fecal Coli = experiment: Disinfection of effluents, fecal coli; format: cell-based; settings: for Fecal Coli: ClO2 dose 9.86 mg/L, 30 minutes; for Fecal Coli EC Media per 100 mL: trickling filters effluents
[4] = format: physicochemical; settings: for Found ppm: test level 0.13 ppm ClO2, taken 0.130 ppm
E. coli [5] = system: E. coli
Total Count = experiment: Disinfection of effluents, total count; format: cell-based; settings: for Total Count: effluents, ClO2 dose 9.86 mg/L, 30 minutes; for Total Count per 100 mL: trickling filters effluents
[6] = system: Poliovirus type 1, ATCC VR-59; format: cell-based; settings: pH 9
[7] = system: Total Plate Count (microbiological surface contamination)
[8] = ClO2 dose 2.7 mg/L, contact time 5 min
[9] = ClO2 dose 2.7 mg/L, contact time 20 min
[10] = ClO2 dose 2.7 mg/L, contact time 35 min
[11] = ClO2 dose 5.0 mg/L, contact time 15 min
[12] = ClO2 dose 10.8 mg/L, contact time 5 min
[13] = ClO2 dose 10.8 mg/L, contact time 20 min
[14] = ClO2 dose 10.8 mg/L, contact time 35 min

For [O][Cl+][O-] [Chlorine Dioxide, chlorine dioxide], the “TPC at day zero” value (TPC) was “less than 7×10^4”, the reduction in titer [1] was greater than 6 log 10 and the E. coli (E. coli [2]) was “below level of detection”. The “micro-biological control compared with chlorine” value [3] was “better micro-biological control agent than chlorine at 5-10 ppm”, the “Fecal Coli” value (Fecal Coli; effluents, pH initial 4.6, final 4.4) was 2 MPN per 100 ml and the “Fecal Coli” value (Fecal Coli; effluents, pH initial 5.5, final 5.6) was 2 MPN per 100 ml. The “Fecal Coli” value (Fecal Coli; effluents, pH initial 6.5, final 6.7) was 0 MPN per 100 ml, the “Fecal Coli” value (Fecal Coli; effluents, pH initial 7.5, final 7.6) was 1.8 MPN per 100 ml and the “Fecal Coli” value (Fecal Coli; effluents, pH initial 8.2, final 8.1) was 23 MPN per 100 ml. The “Fecal Coli” value (Fecal Coli; effluents, pH initial 9.1, final 9.2) was 2.7 × 10^2 MPN per 100 ml, the “Fecal Coli” value (Fecal Coli; effluents, pH initial 10.0, final 10.0) was 1.3 × 10^4 MPN per 100 ml and the “kill of fecal coli” value (Fecal Coli; effluents, dose 2.7 mg/L ClO2, 30 min. contact time) was 98.9%. For the same compound, the “fecal coli organisms survived” value (Fecal Coli; effluents, dose 10.8 mg/L ClO2, 30 min. contact time) was “two”, the “Fecal Coli EC Media per 100 mL” value (Fecal Coli; [8]) was 2.4 × 10^7 per 100 mL and the “Fecal Coli EC Media per 100 mL” value (Fecal Coli; [9]) was 1.3 × 10^7 per 100 mL. For the same compound, the “Fecal Coli EC Media per 100 mL” value (Fecal Coli; [10]) was 3.5 × 10^5 per 100 mL, the “Fecal Coli EC Media per 100 mL” value (Fecal Coli; [11]) was 2.4 × 10^6 per 100 mL and the “Fecal Coli EC Media per 100 mL” value (Fecal Coli; [12]) was 9.2 × 10^2 per 100 mL. The “Fecal Coli EC Media per 100 mL” value (Fecal Coli; [13]) was 14 per 100 mL, the “Fecal Coli EC Media per 100 mL” value (Fecal Coli; [14]) was 2 per 100 mL and the Mean ([4]; Day 1, n 6) was 0.126 ppm. The Found ppm ([4]; Day 1) was 0.128 ppm and 0.126 ppm and 0.115 ppm and 0.127 ppm and 0.133 ppm, the Mean ([4]; Day 5, n 6) was 0.122 ppm and the Found ppm ([4]; Day 5) was 0.125 ppm and 0.122 ppm and 0.117 ppm and 0.123 ppm and 0.118 ppm. The Mean ([4]; Day 15, n 5) was 0.129 ppm, the Found ppm ([4]; Day 15) was 0.133 ppm and 0.129 ppm and 0.127 ppm and 0.125 ppm and 0.131 ppm and 0.157* ppm and the Mean ([4]; Day 30, n 5) was 0.128 ppm. The Found ppm ([4]; Day 30) was 0.126 ppm and 0.130 ppm and 0.128 ppm and 0.125 ppm and 0.161* ppm, the Mean ([4]; Day 48, n 5) was 0.129 ppm and the Found ppm ([4]; Day 48) was 0.131 ppm and 0.127 ppm and 0.128 ppm and 0.164* ppm. For the same compound, the Mean ([4]; Day 96, n 4) was 0.133 ppm, the Found ppm ([4]; Day 96) was 0.137 ppm and 0.132 ppm and 0.128 ppm and 0.133 ppm and 0.161* ppm and the “E. coli on cut lettuce” value (E. coli [5]) was “always zero”. For the same compound, the “Total Count” value (Total Count; pH initial 4.6, final 4.4) was 5 MPN per 100 ml, the “Total Count” value (Total Count; pH initial 5.5, final 5.6) was 15 MPN per 100 ml and the “Total Count” value (Total Count; pH initial 6.5, final 6.7) was 30 MPN per 100 ml. For the same compound, the “Total Count” value (Total Count; pH initial 7.5, final 7.6) was 1 × 10^2 MPN per 100 ml, the “Total Count” value (Total Count; pH initial 8.2, final 8.1) was 2 × 10^2 MPN per 100 ml and the “Total Count” value (Total Count; pH initial 9.1, final 9.2) was 2.5 × 10^3 MPN per 100 ml. For the same compound, the “Total Count” value (Total Count; pH initial 10.0, final 10.0) was 6.8 × 10^2 MPN per 100 ml, the “Total Count per 100 mL” value (Total Count; [8]) was 6.75 × 10^7 per 100 mL and the “Total Count per 100 mL” value (Total Count; [9]) was 5.3 × 10^7 per 100 mL. For the same compound, the “Total Count per 100 mL” value (Total Count; [10]) was 3.1 × 10^7 per 100 mL, the “Total Count per 100 mL” value (Total Count; [11]) was 2.0 × 10^6 per 100 mL and the “Total Count per 100 mL” value (Total Count; ClO2 dose 5.0 mg/L, contact time 30 min) was 1.6 × 10^5 per 100 mL. For the same compound, the “Total Count per 100 mL” value (Total Count; ClO2 dose 5.0 mg/L, contact time 45 min) was 9.0 × 10^4 per 100 mL, the “Total Count per 100 mL” value (Total Count; [12]) was 1.2 × 10^5 per 100 mL and the “Total Count per 100 mL” value (Total Count; [13]) was 2.9 × 10^4 per 100 mL. The “Total Count per 100 mL” value (Total Count; [14]) was 2.5 × 10^4 per 100 mL, the reduction in titer [6] was greater than 4 log 10 and the “TPC at day zero” value [7] was “less than 7×10^4”.
